Our source for the inhibition and Activity values is ChEMBL document CHEMBL3860097, “Synthesis and biological evaluation of C-ring truncated deguelin derivatives as heat shock protein 90 (HSP90) inhibitors” (2016).

The structures appear in SMILES notation. The source made the active and inactive calls. The rule behind the calls is not given here.

In test [1] the target is T1, Heat shock protein HSP90 (Homo sapiens) (UniProt P07900+P08238). The test is described as follows: Inhibition of HSP90 in human H1299 cells assessed as suppression of HIF-1alpha at 100 nM preincubated for 72 hrs followed by incubation under hypoxic condition for 12 hrs by Western blot method relative to control. The format is cell-based.
For test [2], the species on record is Homo sapiens. The test is described as follows: Antiangiogenic activity in HRMEC assessed as inhibition of VEGF-induced cell proliferation under hypoxic condition by measuring [3H]-thymidine incorporation at 100 nM preincubated for 24 hrs followed by [3H]-thymidine addition measured after 6 hrs by liquid scintillation counter. The format is functional. (In general: Dividing cells build labelled thymidine or BrdU into new DNA.)

The species entered for test [3] is Homo sapiens. The test is described as follows: Antiangiogenic activity in HRMEC assessed as inhibition of VEGF-induced cell migration under hypoxic condition at 100 nM after 4 hrs by hematoxylin and eosin staining-based phase-contrast microscopy. The test is classed as functional.
The target in test [4] is T1, Heat shock protein HSP90 (Homo sapiens). The test is described as follows: Inhibition of HSP90 in human H1299 cells assessed as suppression of HIF-1alpha at 10 nM preincubated for 72 hrs followed by incubation under hypoxic condition for 12 hrs by Western blot method relative to control. The format is cell-based. In general terms: Immunoblotting shows a protein as a band on a membrane.

Test [5] in a line: Cytotoxicity against human H1299 cells assessed as decrease in cell viability at 10 uM by MTT assay relative to control. The test is classed as functional, NCI-H1299. A general note: Tetrazolium dyes change colour on reduction, which living cells bring about.
Another test concerns NCI-H1299. The test is described as follows: Cytotoxicity against human H1299 cells assessed as decrease in cell viability by MTT assay. The format is functional, cell-based.
The target in test [6] is T1, Heat shock protein HSP90 (Homo sapiens). The test is described as follows: Inhibition of HSP90 in human H1299 cells assessed as suppression of HIF-1alpha preincubated for 72 hrs followed by incubation under hypoxic condition for 12 hrs by Western blot method. The format is cell-based.

The inhibition is the change of the read-out against control, counted positive when it falls. For `COc1cc2occ(C(OC(C)=O)c3ccc4c(c3OC)C=CC(C)(C)O4)c2cc1OC` (centres undefined), the inhibition in test [1] came to 81%.
`COc1cc2cc(/C(=N\O)c3ccc4c(c3OC)C=CC(C)(C)O4)oc2cc1OC`: the inhibition in test [1] worked out at 117%.
Still for that read-out and setting: the figure for `COc1cc2nccc(C(OC(N)=O)c3ccc4c(c3OC)C=CC(C)(C)O4)c2cc1OC` (centres undefined) is 81.2%; for `CCC(=O)OC(c1ccc2c(c1OC)C=CC(C)(C)O2)c1ccnc2cc(OC)c(OC)cc12` (centres undefined) it is 96.4%.
Consider `COc1ccc(CC(=O)c2ccc3c(c2OC)C=CC(C)(C)O3)cc1OC`, for which the inhibition in test [1] came out at 85.3%.
Turning to `COc1cc2ncnc(C(OC(C)=O)c3ccc4c(c3OC)C=CC(C)(C)O4)c2cc1OC` (centres undefined), the inhibition in test [1] turned out to be 88.6%.
As to `COc1cc2cc(C(OC(C)=O)c3ccc4c(c3OC)C=CC(C)(C)O4)oc2cc1OC` (centres undefined), the inhibition in test [1] was determined as 72.2%.
On the same count and under the same terms, the figure for `COc1cc2nccc(C(OC(C)=O)c3ccc4ncccc4c3)c2cc1OC` (centres undefined) is 82.7%.
On the same count and under the same terms, under `COc1cc2nccc(C(NC(=O)C3CC3)c3ccc4c(c3OC)C=CC(C)(C)O4)c2cc1OC` (centres undefined) stands 85.5%; under `CO/N=C(/c1ccc2c(c1OC)C=CC(C)(C)O2)c1ccnc2cc(OC)c(OC)cc12`, 54.2%.
On the same count and under the same terms, the figure for `COc1cc2cc(C(=O)c3ccc4c(c3OC)C=CC(C)(C)O4)oc2cc1OC` is 54.1%.
Regarding `CO/N=C(\c1cc2cc(OC)c(OC)cc2o1)c1ccc2c(c1OC)C=CC(C)(C)O2`, in test [1], the inhibition was found to be 65.6%.
Still for that read-out and setting: the figure for `COc1cc2cc(C(OC(=O)C3CC3)c3ccc4ncccc4c3)oc2cc1OC` (centres undefined) is 115%; for `COc1cc2nccc(C(OC(C)=O)c3ccc4ncccc4c3OC)c2cc1OC` (centres undefined) it is 67.4%; for `COc1cc2nccc(C(OC(=O)C3CC3)c3ccc4ncccc4c3)c2cc1OC` (centres undefined) it is 115%.
Take `CC(C)c1cc(-c2n[nH]c(=O)n2-c2ccc3c(ccn3C)c2)c(O)cc1O`: the inhibition result in the test filed under Homo sapiens [2] and in the test filed under Homo sapiens [3] was “Active” in each case.
Take `COc1cc2ncnc(C(OC(=O)C3CC3)c3ccc4c(c3OC)C=CC(C)(C)O4)c2cc1OC` (centres undefined): the inhibition in test [1] was 71.9%.
On to `COc1cc2c(cc1OC)[C@@H]1C(=O)c3ccc4c(c3O[C@@H]1CO2)C=CC(C)(C)O4`, for which the inhibition entry in the test listed under Homo sapiens [2] and in the test listed under Homo sapiens [3] was “Active” each time. For the same compound, the inhibition in test [1] came out at 64%; in test [4], 94%.
Turning to `CO/N=C(/c1cc2cc(OC)c(OC)cc2o1)c1ccc2c(c1OC)C=CC(C)(C)O2`, the inhibition in test [1] stood at 66.5%; in test [4], 76.9%.
For the compound `COc1cc2cc(C(O)c3ccc4ncccc4c3)oc2cc1OC` (centres undefined), in test [1], the inhibition amounted to 102%.
On the same count and under the same terms, the figure for `COc1cc2ccc(C(=O)c3ccc4c(c3OC)C=CC(C)(C)O4)nc2cc1OC` is 76%.
Turning to `COc1cc2nccc(C(SC(C)=O)c3ccc4c(c3OC)C=CC(C)(C)O4)c2cc1OC` (centres undefined), the Activity was under 50% in test [5] and “Dose-dependent effect” with NCI-H1299. Also, the results for the inhibition in test [1] and in test [4] were 59.3% and 74%, respectively.
Turning to `COc1cc2nccc(C(OC(C)=O)c3ccc4c(c3OC)C=CC(C)(C)O4)c2cc1OC` (centres undefined), the inhibition in test [1] was found to be 62.2%; in test [4], 95.4%.
Take `COc1cc2nccc(C(=O)c3ccc4c(c3OC)C=CC(C)(C)O4)c2cc1OC`: in test [1], the inhibition was determined as 70.5%.
Same read-out and setting: under `COc1cc2cc(/C(=N/O)c3ccc4c(c3OC)C=CC(C)(C)O4)oc2cc1OC` stands 70.6%.
With `COc1cc2nccc(C(OC(=O)C3CC3)c3ccc4c(c3OC)C=CC(C)(C)O4)c2cc1OC` (centres undefined), the Activity is under 50% in test [5] and “Dose-dependent effect” in the test on NCI-H1299. In addition, the inhibition entry in the test filed under Homo sapiens [2] and in the test listed under Homo sapiens [3] was “Active” in each case. Moreover, the inhibition in test [1] was 53.9%; in test [6] it was “Dose-dependent effect”; in test [4], 63.3%.
`COc1cc2nccc(C(O)c3ccc4c(ccn4C)c3)c2cc1OC` (centres undefined): the inhibition in test [1] came to 102%.
The same measure, in the same setting: under `COc1cc2ccc(C(OC(C)=O)c3ccc4c(c3OC)C=CC(C)(C)O4)nc2cc1OC` (centres undefined) stands 73%; under `CCCC(=O)OC(c1ccc2c(c1OC)C=CC(C)(C)O2)c1ccnc2cc(OC)c(OC)cc12` (centres undefined), 90%.
Same read-out and setting: under `COc1cc2nccc(/C(=N\O)c3ccc4c(c3OC)C=CC(C)(C)O4)c2cc1OC` stands 64%; under `COc1cc2nccc(C(O)c3ccc4c(c3OC)C=CC(C)(C)O4)c2cc1OC` (centres undefined), 71.5%.
On the same count and under the same terms, the figure for `COc1cc2nccc(C(OC(=O)C3CC3)c3ccc4c(ccn4C)c3)c2cc1OC` (centres undefined) is 85%; for `COc1cc2ccc(C(O)c3ccc4c(c3OC)C=CC(C)(C)O4)nc2cc1OC` (centres undefined) it is 86%.
On to `COc1cc2nccc(C(OC(C)=O)c3ccc4c(ccn4C)c3)c2cc1OC` (centres undefined), for which, in test [1], the inhibition was 97.2%.
`COc1cc2cc(C(OC(C)=O)c3ccc4ncccc4c3)oc2cc1OC` (centres undefined): the results for the inhibition in test [1] and in test [4] were 56% and 88%, respectively.
On to `COc1cc2ccc(C(OC(=O)C3CC3)c3ccc4c(c3OC)C=CC(C)(C)O4)nc2cc1OC` (centres undefined), for which, in test [1], the inhibition was determined as 71%.
Regarding `COc1cc2cc(C(=O)c3ccc4ncccc4c3)oc2cc1OC`, in test [1], the inhibition was determined as 40.6%.
As to `COc1cc2occ(C(=O)c3ccc4c(c3OC)C=CC(C)(C)O4)c2cc1OC`, the inhibition in test [1] came out at 92.4%; in test [4] it was 105%.
Consider `COc1cc2nccc(C(NC(C)=O)c3ccc4c(c3OC)C=CC(C)(C)O4)c2cc1OC` (centres undefined), for which the inhibition in test [1] stood at 72.9%.
On the same count and under the same terms, under `COc1cc2nccc(C(=O)c3ccc4c(ccn4C)c3)c2cc1OC` stands 86%; under `COc1cc2nccc(C(N)c3ccc4c(c3OC)C=CC(C)(C)O4)c2cc1OC` (centres undefined), 68.9%.
Take `COc1cc2nccc(C(OC(=O)C3CC3)c3ccc4ncccc4c3OC)c2cc1OC` (centres undefined): the inhibition in test [1] came to 80.5%.
